In patent US20250362274A1, “SYSTEMS AND METHODS TO DETERMINE PARTITION COEFFICIENTS BETWEEN CRUDE OIL AND AN AQUEOUS PHASE” (Saudi Arabian Oil Company, priority 2024, published 2025):

What was measured:
[1] = Partition coefficient between crude oil and aqueous phase (microfluidic mixer, functionalized glass fiber separation tube, HPLC UV-Vis); assay type: physicochemical; conditions: tracer at 100 ppm, after mixing with crude oil and separation
Procedure: In step 2700, the partition coefficient is calculated using the measurement from step 2600 and the reference points and calibration curve from step 2100. The partition coefficient of a substance “A” is defined as
where [A]org is the concentration of substance A in the organic phase, and [A]aq is the concentration of substance A in the water phase, with equal volumes of organic and aqueous phases at equilibrium. The detection system 1300 and the calibration curve from the step 2100 can provide [A]aq. [A]total can be obtained from the step 2200 and [A]org can be calculated as [A]org=[A]total−[A]aq.
A partition coefficient detection system was constructed using a teardrop microfluidic mixer (micronit), a functionalized glass fiber packed capillary tube oil/water phase separator, and a 1D HPLC UV-Vis detector (Agilent, 1290 Infinity HPLC system).
To prepare the functionalized glass fiber packed capillary tube oil/water phase separator, a hydrophobic fiber filtration material was prepared by chemically functionalizing surfaces of glass wool. […] The washed glass wool was immersed in 20 mL Piranha solution (3:1 mixture of concentrated sulfuric acid and 30% hydrogen peroxide) for 30 mins, then the treated glass wool was removed from the Piranha solution and rinsed with DI water until the pH value of the water used for rinsing was near neutral pH (pH=7±1), as monitored by a pH meter. […]

[2] = Hansch, C. et al. (1995); cited from earlier work

| SMILES | partitioning behavior between crude oil and aqueous phase (FIG. 4) [1] | partition coefficient (log P), value from the literature [2] |
| --- | --- | --- |
| O=C(O)c1ccccc1F [2-fluorobenzoic acid] | did not show partitioning behavior | – |
| OCc1ccc(Cl)cc1 [4-CBA, 4-chlorobenzyl alcohol] | did show partitioning behavior | 1.96 |
